In the NIST ThermoML archive (doi:10.1021/je049955d):

How the values were obtained:
[1] = 298.15 K, Ring tensiometer
[2] = xn = mol fraction of the nth substance listed; details: 298.15 K, Ring tensiometer

OCCO [1,2-ethanediol]
Details	surface tension liquid-gas [mN/m]
[1]	47.8

OCCO [1,2-ethanediol] + O
[2]
Details	surface tension liquid-gas [mN/m]
x1 = 0.008251	70.8
x1 = 0.01012	70.7
x1 = 0.01185	70.4
x1 = 0.01423	70.2
x1 = 0.01585	69.7
x1 = 0.01823	69.6
x1 = 0.02	69.4
x1 = 0.02198	69.2
x1 = 0.02488	68.8
x1 = 0.02992	68.2
x1 = 0.03542	67.7
x1 = 0.0401	67.3
x1 = 0.04519	66.6
x1 = 0.101	62.5
x1 = 0.2	57.9

CC(=O)CC(C)=O [2,4-pentanedione]
Details	surface tension liquid-gas [mN/m]
[1]	30.9

CC(=O)CC(C)=O [2,4-pentanedione] + O
[2]
Details	surface tension liquid-gas [mN/m]
x1 = 0.000205	70.7
x1 = 0.000412	70.1
x1 = 0.00049	69.9
x1 = 0.000578	69.5
x1 = 0.000783	69.1
x1 = 0.001016	68.3
x1 = 0.001976	65.5
x1 = 0.004045	61.4
x1 = 0.004973	59.8
x1 = 0.006054	58.3
x1 = 0.008089	55.6
x1 = 0.0103	53.3

CCOCCOC(C)=O [2-ethoxyethyl ethanoate]
Details	surface tension liquid-gas [mN/m]
[1]	28.7

CCOCCOC(C)=O [2-ethoxyethyl ethanoate] + O
[2]
Details	surface tension liquid-gas [mN/m]
x1 = 0.000101	70
x1 = 0.000178	68.9
x1 = 0.00019	68.4
x1 = 0.000221	67.9
x1 = 0.000407	66
x1 = 0.00046	65.6
x1 = 0.000582	64.5
x1 = 0.000777	63.5
x1 = 0.000958	62.4
x1 = 0.001352	60.3
x1 = 0.003046	55.2
x1 = 0.005086	51.2
x1 = 0.007004	48.6
x1 = 0.01091	44.7
x1 = 0.013	43.2
x1 = 0.01497	41.4

CCCCO [butan-1-ol]
Details	surface tension liquid-gas [mN/m]
[1]	24.3

CCCCO [butan-1-ol] + O
[2]
Details	surface tension liquid-gas [mN/m]
x1 = 0.000138	69.4
x1 = 0.000235	68.8
x1 = 0.000292	68.1
x1 = 0.000392	66.9
x1 = 0.000596	64.4
x1 = 0.000778	62.5
x1 = 0.001004	60.4
x1 = 0.001457	56.5
x1 = 0.001997	53.9
x1 = 0.002872	49.2
x1 = 0.003931	45.8
x1 = 0.006003	40.7
x1 = 0.006847	38.3
x1 = 0.008156	36.4
x1 = 0.01013	33.7
x1 = 0.01204	31.1
x1 = 0.01288	29.9
x1 = 0.01411	29.1

CCC(C)O (stereo unspecified) [butan-2-ol]
Details	surface tension liquid-gas [mN/m]
[1]	23.3

CCC(C)O (stereo unspecified) [butan-2-ol] + O
[2]
Details	surface tension liquid-gas [mN/m]
x1 = 0.000154	70.2
x1 = 0.000211	69.7
x1 = 0.000443	67.3
x1 = 0.000718	64.8
x1 = 0.001	62.6
x1 = 0.001994	57.5
x1 = 0.003914	50.9
x1 = 0.005882	46.4
x1 = 0.00799	43.1
x1 = 0.009938	40.6
x1 = 0.01199	38.5
x1 = 0.01394	36.8

CCC(C)=O [butanone]
Details	surface tension liquid-gas [mN/m]
[1]	24.2

CCC(C)=O [butanone] + O
[2]
Details	surface tension liquid-gas [mN/m]
x1 = 5.71e-05	71.8
x1 = 7.54e-05	71.7
x1 = 8.96e-05	71.5
x1 = 0.000112	71.3
x1 = 0.000296	70
x1 = 0.000522	68.9
x1 = 0.000741	67.8
x1 = 0.000855	67.3
x1 = 0.000997	66.8
x1 = 0.002056	63.1
x1 = 0.00405	58.6
x1 = 0.006112	55.1
x1 = 0.008019	52.7
x1 = 0.01022	50.4
x1 = 0.01205	48.8
x1 = 0.01413	47.4

OC1CCCC1 [cyclopentanol]
Details	surface tension liquid-gas [mN/m]
[1]	32.8

OC1CCCC1 [cyclopentanol] + O
[2]
Details	surface tension liquid-gas [mN/m]
x1 = 0.000201	70.8
x1 = 0.000369	69.6
x1 = 0.000525	68.5
x1 = 0.000574	68
x1 = 0.000713	67.3
x1 = 0.000986	65.1
x1 = 0.001816	60.2
x1 = 0.002519	57.5
x1 = 0.002728	56.3
x1 = 0.003934	52.6
x1 = 0.005255	49.6
x1 = 0.005987	48.3
x1 = 0.008154	44.8
x1 = 0.01025	42.4
x1 = 0.01189	40.6
x1 = 0.01448	38.4

O=C1CCCC1 [cyclopentanone]
Details	surface tension liquid-gas [mN/m]
[1]	33

O=C1CCCC1 [cyclopentanone] + O
[2]
Details	surface tension liquid-gas [mN/m]
x1 = 0.000186	71.1
x1 = 0.000367	70.3
x1 = 0.000559	69.6
x1 = 0.000768	68.9
x1 = 0.000966	68.3
x1 = 0.001362	67
x1 = 0.002445	63.6
x1 = 0.003863	61.1
x1 = 0.006022	57.8
x1 = 0.007908	55.5
x1 = 0.009964	53.7
x1 = 0.01215	52
x1 = 0.01428	50.3

CCOC(C)=O [ethyl acetate]
Details	surface tension liquid-gas [mN/m]
[1]	23.7

CCOC(C)=O [ethyl acetate] + O
[2]
Details	surface tension liquid-gas [mN/m]
x1 = 0.000189	69.6
x1 = 0.000351	67.7
x1 = 0.000617	65.2
x1 = 0.000819	63.7
x1 = 0.000997	62.3
x1 = 0.002074	57.3
x1 = 0.003938	51.2
x1 = 0.006035	46.7
x1 = 0.008035	43.4
x1 = 0.009946	40.5
x1 = 0.01195	37.8
x1 = 0.01401	35.2

COC(=O)CC(C)=O [methyl 3-oxobutanoate]
Details	surface tension liquid-gas [mN/m]
[1]	35.7

COC(=O)CC(C)=O [methyl 3-oxobutanoate] + O
[2]
Details	surface tension liquid-gas [mN/m]
x1 = 0.000186	71.1
x1 = 0.000411	70.4
x1 = 0.000609	69.9
x1 = 0.000793	69.3
x1 = 0.001003	68.6
x1 = 0.001822	66.6
x1 = 0.003971	62.4
x1 = 0.005842	60.2
x1 = 0.008086	57.8
x1 = 0.00996	56.1
x1 = 0.01206	54.5
x1 = 0.01404	53.2

CCC#N [propanenitrile]
Details	surface tension liquid-gas [mN/m]
[1]	26.9

CCC#N [propanenitrile] + O
[2]
Details	surface tension liquid-gas [mN/m]
x1 = 0.000183	71.6
x1 = 0.000368	71
x1 = 0.000563	70.3
x1 = 0.000784	69.5
x1 = 0.000963	69.2
x1 = 0.001988	66.6
x1 = 0.003895	62.9
x1 = 0.005968	59.5
x1 = 0.008178	56.6
x1 = 0.01015	54.2
x1 = 0.012	52.4
x1 = 0.01434	49.9

O [water]
Details	surface tension liquid-gas [mN/m]
[1]	71.95
